Experiments:
[1] = system: HUVEC; assay: cells; conditions: Homo sapiens, 3 h
Description: Antiangiogenic activity in HUVEC assessed as inhibition of VEGF-induced cell proliferation by [3H]thymidine incorporation assay

[2] = target: Vascular endothelial growth factor receptor 2 (Homo sapiens, UniProt P35968); assay: Inhibition of human VEGFR2 expressed in Sf9 cells
[3] = system: HeLa; assay: Antiangiogenic activity against human HeLa cells assessed as inhibition of cell proliferation by [3H]thymidine incorporation assay; type: functional, cell-based
[4] = system: FaDu; assay: Antitumor activity against human FADU cells xenografted NMRI nu/nu mouse assessed as inhibition of mean tumor volume growth at 50 mg/kg, po bid after 21 days relative to control; type: functional
[5] = Plasma concentration in NMRI nu/nu mouse at 40 mg/kg, po administered as single dose after 24 hrs; type: ADME, organism-based; parameters: dose 40 mg/kg, route oral
[6] = target: Cyclin-dependent kinase 1 (Homo sapiens, UniProt P06493); assay: Inhibition of human CDK1
[7] = target: Receptor tyrosine-protein kinase erbB-2 (Homo sapiens, UniProt P04626); assay: Inhibition of human HER2
[8] = target: Insulin receptor (Homo sapiens, UniProt P06213); assay: Inhibition of human InsR
[9] = target: Serine/threonine-protein kinase PLK1 (Homo sapiens, UniProt P53350); assay: Inhibition of human Plk1
[10] = system: FaDu; assay: Antiangiogenic activity against human FADU cells assessed as inhibition of cell proliferation by [3H]thymidine incorporation assay; type: functional, cell-based
[11] = target: Vascular endothelial growth factor receptor 1 (Homo sapiens, UniProt P17948)
Description: Inhibition of human VEGFR1

[12] = Plasma concentration in NMRI nu/nu mouse at 40 mg/kg, po administered as single dose after 2 hrs; type: ADME, organism-based; parameters: dose 40 mg/kg, route oral
[13] = system: FaDu; assay: Antitumor activity against human FADU cells xenografted NMRI nu/nu mouse assessed as inhibition of mean tumor volume growth at 50 mg/kg, po qd after 21 days relative to control; type: functional
[14] = system: Calu-6; assay: Antiangiogenic activity against human Calu6 cells assessed as inhibition of cell proliferation by [3H]thymidine incorporation assay; type: functional, cell-based
[15] = system: FaDu; assay: Antitumor activity against human FADU cells xenografted NMRI nu/nu mouse assessed as inhibition of mean tumor volume growth at 100 mg/kg, po qd after 21 days relative to control; type: functional
[16] = target: Platelet-derived growth factor receptor alpha (Homo sapiens, UniProt P16234)
Description: Inhibition of human PDGFRalpha

[17] = target: Fibroblast growth factor receptor 1 (Homo sapiens, UniProt P11362)
Description: Inhibition of human FGFR1

[18] = target: Epidermal growth factor receptor (Homo sapiens, UniProt P00533); assay: Inhibition of human EGFR
[19] = target: Cyclin-dependent kinase 4 (Homo sapiens, UniProt P11802); assay: Inhibition of human CDK4
[20] = target: Vascular endothelial growth factor receptor 3 (Homo sapiens, UniProt P35916)
Description: Inhibition of human VEGFR3

[21] = target: Insulin-like growth factor 1 receptor (Homo sapiens, UniProt P08069); assay: Inhibition of human IGFR1
[22] = system: CAKI-1; assay: Antitumor activity against human Caki1 cells xenografted NMRI nu/nu mouse assessed as inhibition of mean tumor volume growth at 10 mg/kg, po qd after 21 days relative to control; type: functional
[23] = system: FaDu; assay: Antitumor activity against human FADU cells xenografted NMRI nu/nu mouse assessed as inhibition of mean tumor volume growth at 25 mg/kg, po qd after 21 days relative to control; type: functional
[24] = Half life in NMRI nu/nu mouse at 50 mg/kg, po administered as single dose; type: ADME, organism-based; parameters: dose 50 mg/kg, route oral; conditions: in vivo
[25] = Oral bioavailability in NMRI nu/nu mouse at 50 mg/kg administered as single dose; type: ADME, organism-based; conditions: in vivo
[26] = Antitumor activity against human PAC120 cells xenografted NMRI nu/nu mouse assessed as inhibition of mean tumor volume growth at 100 mg/kg, po qd after 21 days relative to control; type: functional
[27] = system: CAKI-1; assay: Antitumor activity against human Caki1 cells xenografted NMRI nu/nu mouse assessed as inhibition of mean tumor volume growth at 100 mg/kg, po qd after 21 days relative to control; type: functional
[28] = Plasma concentration in NMRI nu/nu mouse at 50 mg/kg, po administered as single dose after 2 hrs; type: ADME, organism-based; parameters: dose 50 mg/kg, route oral
[29] = system: Mus musculus; assay: AUC in NMRI nu/nu mouse at 50 mg/kg, po administered as single dose; type: ADME, organism-based, Plasma; parameters: dose 50 mg/kg, route oral; conditions: in vivo
[30] = system: SK-OV-3; assay: Antitumor activity against human SKOV3 cells xenografted NMRI nu/nu mouse assessed as inhibition of mean tumor volume growth at 50 mg/kg, po qd after 21 days relative to control; type: functional
[31] = system: HT-29; assay: Antitumor activity against human HT-29 cells xenografted NMRI nu/nu mouse assessed as inhibition of mean tumor volume growth at 100 mg/kg, po qd after 21 days relative to control; type: functional
[32] = system: FaDu; assay: Antitumor activity against human FADU cells xenografted NMRI nu/nu mouse assessed as inhibition of mean tumor volume growth at 10 mg/kg, po qd after 21 days relative to control; type: functional
[33] = Volume of distribution in NMRI nu/nu mouse at 50 mg/kg, po or 10 mg/kg, iv administered as single dose; type: ADME, organism-based; conditions: in vivo
[34] = Plasma concentration in NMRI nu/nu mouse at 50 mg/kg, po administered as single dose after 24 hrs; type: ADME, organism-based; parameters: dose 50 mg/kg, route oral
[35] = system: CAKI-1; assay: Antitumor activity against human Caki1 cells xenografted NMRI nu/nu mouse assessed as inhibition of mean tumor volume growth at 50 mg/kg, po qd after 21 days relative to control; type: functional
[36] = Clearance in NMRI nu/nu mouse at 50 mg/kg, po or 10 mg/kg, iv administered as single dose; type: ADME, organism-based; conditions: in vivo
[37] = system: Calu-6; assay: Antitumor activity against human Calu6 cells xenografted NMRI nu/nu mouse assessed as inhibition of mean tumor volume growth at 50 mg/kg, po qd after 21 days relative to control; type: functional
[38] = Cmax in NMRI nu/nu mouse at 50 mg/kg, po administered as single dose; type: ADME, organism-based; parameters: dose 50 mg/kg, route oral; conditions: in vivo

Chain of Vascular endothelial growth factor receptor 2 (P35968 whole entry): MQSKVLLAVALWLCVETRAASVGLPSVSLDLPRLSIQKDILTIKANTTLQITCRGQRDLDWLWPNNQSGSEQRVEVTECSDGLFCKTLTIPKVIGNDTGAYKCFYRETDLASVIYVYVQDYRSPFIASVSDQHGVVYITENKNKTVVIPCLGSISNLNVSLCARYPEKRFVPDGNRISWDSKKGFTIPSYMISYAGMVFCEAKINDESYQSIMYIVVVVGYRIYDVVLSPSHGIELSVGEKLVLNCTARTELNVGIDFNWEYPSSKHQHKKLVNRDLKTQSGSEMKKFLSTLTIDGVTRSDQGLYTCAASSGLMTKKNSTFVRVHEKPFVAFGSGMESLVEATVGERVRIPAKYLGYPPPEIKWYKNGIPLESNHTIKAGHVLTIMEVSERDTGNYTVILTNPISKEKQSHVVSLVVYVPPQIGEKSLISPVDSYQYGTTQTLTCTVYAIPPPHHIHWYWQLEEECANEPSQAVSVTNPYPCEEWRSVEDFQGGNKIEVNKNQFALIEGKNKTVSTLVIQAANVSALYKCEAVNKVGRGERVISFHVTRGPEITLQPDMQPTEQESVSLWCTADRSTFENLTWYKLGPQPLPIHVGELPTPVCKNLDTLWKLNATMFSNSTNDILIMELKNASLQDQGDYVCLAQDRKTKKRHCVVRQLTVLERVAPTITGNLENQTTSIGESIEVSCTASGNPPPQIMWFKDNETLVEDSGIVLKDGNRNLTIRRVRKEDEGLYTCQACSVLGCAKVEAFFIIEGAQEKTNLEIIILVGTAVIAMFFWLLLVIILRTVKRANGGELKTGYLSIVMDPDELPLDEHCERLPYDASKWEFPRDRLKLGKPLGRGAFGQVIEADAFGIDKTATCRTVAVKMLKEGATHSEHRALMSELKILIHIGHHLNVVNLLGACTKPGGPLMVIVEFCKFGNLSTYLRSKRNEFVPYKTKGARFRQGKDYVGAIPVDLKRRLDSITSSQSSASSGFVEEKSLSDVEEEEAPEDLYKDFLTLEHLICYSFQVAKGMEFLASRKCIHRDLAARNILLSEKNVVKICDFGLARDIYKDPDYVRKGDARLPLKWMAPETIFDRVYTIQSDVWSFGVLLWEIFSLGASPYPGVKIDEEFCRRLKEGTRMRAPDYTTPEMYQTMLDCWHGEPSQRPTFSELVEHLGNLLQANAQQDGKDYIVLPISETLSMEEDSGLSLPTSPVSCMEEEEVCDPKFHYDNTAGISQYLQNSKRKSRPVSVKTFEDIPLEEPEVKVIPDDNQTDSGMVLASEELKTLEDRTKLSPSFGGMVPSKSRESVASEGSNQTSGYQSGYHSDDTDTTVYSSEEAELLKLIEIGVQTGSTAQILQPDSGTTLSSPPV
Chain of Serine/threonine-protein kinase PLK1 (P53350 whole entry): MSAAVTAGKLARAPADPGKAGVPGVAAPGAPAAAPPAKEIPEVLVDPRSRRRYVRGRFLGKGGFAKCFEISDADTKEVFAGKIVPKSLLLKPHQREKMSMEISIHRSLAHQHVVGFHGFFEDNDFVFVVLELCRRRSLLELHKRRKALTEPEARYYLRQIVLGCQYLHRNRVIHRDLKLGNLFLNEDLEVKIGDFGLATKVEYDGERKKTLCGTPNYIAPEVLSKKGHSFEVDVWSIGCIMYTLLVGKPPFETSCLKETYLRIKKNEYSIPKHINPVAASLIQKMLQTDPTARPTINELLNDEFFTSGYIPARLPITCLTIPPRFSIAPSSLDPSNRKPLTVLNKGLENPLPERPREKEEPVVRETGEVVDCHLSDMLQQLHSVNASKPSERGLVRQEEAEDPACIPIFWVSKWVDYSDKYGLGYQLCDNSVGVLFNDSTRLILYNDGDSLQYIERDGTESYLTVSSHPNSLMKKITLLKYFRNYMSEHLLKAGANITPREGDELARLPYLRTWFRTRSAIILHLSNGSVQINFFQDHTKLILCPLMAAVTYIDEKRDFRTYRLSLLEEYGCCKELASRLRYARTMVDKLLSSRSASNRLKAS
Chain of Vascular endothelial growth factor receptor 3 (P35916 whole entry): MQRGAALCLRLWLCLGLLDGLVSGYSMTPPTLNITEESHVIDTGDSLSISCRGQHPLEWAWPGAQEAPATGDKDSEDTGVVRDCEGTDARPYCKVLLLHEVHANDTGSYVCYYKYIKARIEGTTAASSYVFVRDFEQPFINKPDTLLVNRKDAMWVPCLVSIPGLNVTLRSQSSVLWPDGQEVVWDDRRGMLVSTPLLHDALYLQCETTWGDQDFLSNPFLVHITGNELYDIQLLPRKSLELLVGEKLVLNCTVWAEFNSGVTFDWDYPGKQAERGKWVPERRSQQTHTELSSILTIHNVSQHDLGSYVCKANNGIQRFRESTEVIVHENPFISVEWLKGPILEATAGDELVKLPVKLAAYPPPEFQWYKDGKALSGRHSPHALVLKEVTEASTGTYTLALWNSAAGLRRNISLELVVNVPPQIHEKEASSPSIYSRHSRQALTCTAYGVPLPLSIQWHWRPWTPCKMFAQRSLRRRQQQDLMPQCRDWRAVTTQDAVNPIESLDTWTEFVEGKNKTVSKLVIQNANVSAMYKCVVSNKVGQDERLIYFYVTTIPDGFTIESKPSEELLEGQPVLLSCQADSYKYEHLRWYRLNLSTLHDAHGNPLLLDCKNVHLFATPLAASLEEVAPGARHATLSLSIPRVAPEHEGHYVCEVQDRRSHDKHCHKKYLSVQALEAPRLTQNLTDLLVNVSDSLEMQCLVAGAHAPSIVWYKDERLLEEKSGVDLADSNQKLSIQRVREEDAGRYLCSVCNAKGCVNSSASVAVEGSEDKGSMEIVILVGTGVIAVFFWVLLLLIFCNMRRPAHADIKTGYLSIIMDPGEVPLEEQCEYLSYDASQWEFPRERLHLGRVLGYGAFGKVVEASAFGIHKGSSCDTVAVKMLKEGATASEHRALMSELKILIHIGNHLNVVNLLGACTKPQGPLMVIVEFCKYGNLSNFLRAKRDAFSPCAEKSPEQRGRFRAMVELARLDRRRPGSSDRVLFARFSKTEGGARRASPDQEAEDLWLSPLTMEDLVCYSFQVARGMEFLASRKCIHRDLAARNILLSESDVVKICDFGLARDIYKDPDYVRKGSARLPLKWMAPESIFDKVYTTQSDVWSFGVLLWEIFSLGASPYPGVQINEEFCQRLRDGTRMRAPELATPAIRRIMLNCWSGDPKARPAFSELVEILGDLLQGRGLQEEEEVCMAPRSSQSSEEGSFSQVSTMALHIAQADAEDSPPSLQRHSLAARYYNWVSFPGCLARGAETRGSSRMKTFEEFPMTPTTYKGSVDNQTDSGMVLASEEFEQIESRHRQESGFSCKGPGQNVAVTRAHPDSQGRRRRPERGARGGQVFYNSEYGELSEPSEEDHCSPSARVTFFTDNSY
Chain of Vascular endothelial growth factor receptor 1 (P17948 whole entry): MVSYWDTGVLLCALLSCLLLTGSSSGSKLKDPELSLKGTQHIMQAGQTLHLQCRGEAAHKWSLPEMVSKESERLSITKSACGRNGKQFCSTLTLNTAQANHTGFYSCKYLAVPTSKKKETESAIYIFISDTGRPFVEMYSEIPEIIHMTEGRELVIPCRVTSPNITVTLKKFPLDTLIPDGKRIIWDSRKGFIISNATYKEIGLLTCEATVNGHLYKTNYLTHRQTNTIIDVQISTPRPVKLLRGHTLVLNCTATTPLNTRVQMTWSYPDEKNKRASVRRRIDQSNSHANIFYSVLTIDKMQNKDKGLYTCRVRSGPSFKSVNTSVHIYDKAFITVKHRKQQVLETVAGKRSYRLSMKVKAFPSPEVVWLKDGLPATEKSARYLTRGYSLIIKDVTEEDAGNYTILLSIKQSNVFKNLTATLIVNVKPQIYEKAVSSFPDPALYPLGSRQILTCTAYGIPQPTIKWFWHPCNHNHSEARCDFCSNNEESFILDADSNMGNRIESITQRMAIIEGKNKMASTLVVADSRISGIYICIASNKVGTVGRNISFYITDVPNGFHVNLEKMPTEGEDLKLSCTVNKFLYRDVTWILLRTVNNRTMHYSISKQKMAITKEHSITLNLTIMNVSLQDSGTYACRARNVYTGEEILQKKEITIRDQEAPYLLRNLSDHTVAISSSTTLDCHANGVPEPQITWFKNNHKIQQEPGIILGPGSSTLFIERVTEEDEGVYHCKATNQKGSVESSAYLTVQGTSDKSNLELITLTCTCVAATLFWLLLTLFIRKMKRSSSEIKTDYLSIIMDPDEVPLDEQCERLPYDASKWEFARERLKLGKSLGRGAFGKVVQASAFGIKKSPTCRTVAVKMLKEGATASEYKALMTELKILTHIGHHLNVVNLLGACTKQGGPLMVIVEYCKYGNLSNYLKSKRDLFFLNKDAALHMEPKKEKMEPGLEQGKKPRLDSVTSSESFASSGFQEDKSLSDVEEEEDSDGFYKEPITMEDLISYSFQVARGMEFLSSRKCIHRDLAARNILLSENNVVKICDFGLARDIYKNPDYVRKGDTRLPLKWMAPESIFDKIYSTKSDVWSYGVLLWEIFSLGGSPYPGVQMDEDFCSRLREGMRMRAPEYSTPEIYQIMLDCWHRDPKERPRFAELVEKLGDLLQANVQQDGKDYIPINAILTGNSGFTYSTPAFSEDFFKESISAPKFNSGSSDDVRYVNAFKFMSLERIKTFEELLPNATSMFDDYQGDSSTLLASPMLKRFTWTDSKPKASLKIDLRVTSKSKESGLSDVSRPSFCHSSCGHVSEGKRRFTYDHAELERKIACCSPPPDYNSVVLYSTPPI
Chain of Cyclin-dependent kinase 4 (P11802 whole entry): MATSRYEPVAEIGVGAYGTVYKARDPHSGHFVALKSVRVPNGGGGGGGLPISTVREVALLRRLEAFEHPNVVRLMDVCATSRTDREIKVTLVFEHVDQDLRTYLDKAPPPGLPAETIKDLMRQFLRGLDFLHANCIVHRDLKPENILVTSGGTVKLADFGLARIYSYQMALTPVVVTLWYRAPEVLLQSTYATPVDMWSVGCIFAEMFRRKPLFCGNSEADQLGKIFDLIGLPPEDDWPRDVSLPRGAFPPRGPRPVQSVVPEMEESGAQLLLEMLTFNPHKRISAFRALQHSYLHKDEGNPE

For `COC(=O)c1ccc2c(c1)NC(=O)/C2=C(\Nc1ccc(N(CCN(C)C)C(C)=O)cc1)c1ccccc1`, the EC50 [1] was 15 nM and the IC50 [2] was 12 nM.

Work on `COC(=O)c1ccc2c(c1)NC(=O)/C2=C(\Nc1ccc(N(CCN(C)C)S(C)(=O)=O)cc1)c1ccccc1` yielded an EC50 [1] of 14 nM and an IC50 [2] of 23 nM.

Compound `CC(=O)c1ccc2c(c1)NC(=O)/C2=C(\Nc1ccc(CN2CCCCC2)cc1)c1ccccc1` has an IC50 [2] of 1750 nM.

Work on `O=C1Nc2ccccc2/C1=C(/Nc1ccc(CN2CCCCC2)cc1)c1ccccc1` yielded an IC50 [2] of 2110 nM.

`O=C1Nc2cc(C(=O)O)ccc2/C1=C(/Nc1ccc(CN2CCCCC2)cc1)c1ccccc1` gave an IC50 [2] greater than 1000 nM.

For `N#Cc1ccc2c(c1)NC(=O)/C2=C(\Nc1ccc(CN2CCCCC2)cc1)c1ccccc1`, the EC50 [1] was 281 nM and the IC50 [2] was 248 nM.

In the case of `O=C1Nc2cc([N+](=O)[O-])ccc2/C1=C(/Nc1ccc(CN2CCCCC2)cc1)c1ccccc1`, the EC50 [1] is reported as 60 nM, the IC50 [2] is reported as 7 nM and the EC50 [3] is reported as greater than 1000 nM.

Compound `O=C1Nc2cc(Cl)ccc2/C1=C(/Nc1ccc(CN2CCCCC2)cc1)c1ccccc1` has an EC50 [1] of 49 nM and an IC50 [2] of 129 nM.

Compound `COC(=O)c1ccc2c(c1)NC(=O)/C2=C(\Nc1ccc(N(C)S(C)(=O)=O)cc1)c1ccccc1` has an IC50 [2] of 150 nM.

Compound `COC(=O)c1ccc2c(c1)NC(=O)/C2=C(\Nc1ccccc1)c1ccccc1` has an IC50 [2] of 8000 nM.

`COC(=O)c1ccc2c(c1)NC(=O)/C2=C(\Nc1ccc(N(C)C(=O)Cn2ccnc2)cc1)c1ccccc1` showed an EC50 [1] of 52 nM and an IC50 [2] of 6 nM.

`CC(C)NC(=O)c1ccc2c(c1)NC(=O)/C2=C(\Nc1ccc(CN2CCCCC2)cc1)c1ccccc1` showed an EC50 [1] of 1070 nM and an IC50 [2] of 1230 nM.

Work on `COC(=O)c1ccc2c(c1)NC(=O)/C2=C(\Nc1ccc(CN(C)C(=O)N(C)C)cc1)c1ccccc1` yielded a T/C [4] of 11%, a concentration at 24 h [5] of 16 nM and an IC50 [6] greater than 10000 nM. For the same compound, the IC50 [7] was greater than 10000 nM, the IC50 [8] was greater than 10000 nM and the IC50 [9] was greater than 10000 nM. For the same compound, the EC50 [10] was greater than 1000 nM, the IC50 [11] was 82 nM and the concentration at 2 h [12] was 1250 nM. The IC50 [1] was 22 nM, the T/C [13] was 31% and the IC50 [2] was 61 nM. The EC50 [14] was greater than 1000 nM, the T/C [15] was 13% and the IC50 [16] was 20 nM. It also gave an IC50 [17] of 50 nM, an IC50 [18] greater than 10000 nM and an IC50 [19] greater than 10000 nM. It also gave an EC50 [3] greater than 1000 nM, an IC50 [20] of 10 nM and an IC50 [21] greater than 10000 nM.

`CCOC(=O)c1ccc2c(c1)NC(=O)/C2=C(\Nc1ccc(CN2CCCCC2)cc1)c1ccccc1` gave an EC50 [1] of 47 nM, an IC50 [2] of 109 nM and an EC50 [3] greater than 1000 nM.

`COC(=O)c1ccc2c(c1)NC(=O)/C2=C(\Nc1ccc(C(=O)N(C)CCN(C)C)cc1)c1ccccc1` gave an EC50 [1] of 25 nM and an IC50 [2] of 24 nM.

Compound `COC(=O)c1ccc2c(c1)NC(=O)/C2=C(\Nc1ccc(N(CCCN(C)C)C(C)=O)cc1)c1ccccc1` has an EC50 [1] of 15 nM and an IC50 [2] of 9 nM.

In the case of `COC(=O)c1ccc2c(c1)NC(=O)/C2=C(\Nc1ccc(N(C)C(=O)CN2CCN(C)CC2)cc1)c1ccccc1` [NINTEDANIB], the T/C [4] is reported as 15%, the T/C [22] is reported as 71% and the T/C [23] is reported as 46%. For the same compound, the half-life [24] was 5 h, the bioavailability [25] was 45% and the T/C [26] was 34%. For the same compound, the IC50 [9] was greater than 10000 nM, the EC50 [10] was greater than 1000 nM and the IC50 [1] was 10 nM. For the same compound, the T/C [27] was 16%, the T/C [13] was 14% and the EC50 [14] was greater than 1000 nM. The T/C [15] was 11%, the concentration at 2 h [28] was 923 nM and the AUC [29] was 2.75 µM·h. For the same compound, the T/C [30] was 19%, the T/C [31] was 16% and the T/C [32] was 82%. It also gave a Vd [33] of 32 L/kg, an EC50 [3] greater than 1000 nM and a concentration at 24 h [34] of 8 nM. For the same compound, the T/C [35] was 25%, the clearance [36] was 173 mL/min/kg and the T/C [37] was 24%. The Cmax [38] was 1090 nM.

Source: ChEMBL document CHEMBL1137777, “Design, synthesis, and evaluation of indolinones as triple angiokinase inhibitors and the discovery of a highly specific 6-methoxycarbonyl-substituted indolinone (BIBF 1120)” (J Med Chem, 2009)
